How the values were obtained:
[1] = test system: lipid metabolism activity (β-oxidation activity); assay: Lipid metabolism activity (β-oxidation activity) of liver and skeletal muscle after oral administration; type: in vivo, mice
Description: Seven-week-old Balb/c male mice were divided into 2 groups, to which a physiological saline (control) or nootkatone at 200 mg/kg of body weight was then orally administered for 10 consecutive days. Then, their livers and skeletal muscles (gastrocnemius muscle+soleus muscle) were collected. The livers and skeletal muscles were respectively homogenized in a buffer (250 mM sucrose, 1 mM EDTA in 10 mM HEPES (pH 7.2)), and the insoluble tissue residues were removed by centrifugation to obtain supernatants. The obtained supernatants were measured for protein levels. The protein levels were adjusted among samples to constant levels, and the samples were used in the measurement of lipid metabolism activity (β-oxidation activity). A 100-μg aliquot of the supernatant protein was reacted at 37° C. for 20 minutes with 0.1 μCi [^14C]-palmitic acid in a buffer (50 mM Tris-HCl (pH 8.0), 40 mM NaCl, 2 mM KCl, 2 mM MgCl2, 1 mM DTT, 5 mM ATP, 0.2 mM L-carnitine, 0.2 mM NAD, 0.06 mM FAD, 0.12 mM CoA, 3 mM α-cyclodextrin) at the final volume of 200 μL. The reaction was terminated with 200 μL of 0.6 N perchloric acid, and the unreacted [^14C]-palmitic acid was removed 3 times with 1 mL hexane. Lipid-degrading activity was measured by measuring radioactivity of the aqueous layer.
The degree of the lipid-degrading activity was indicated as a relative value to that of the control defined as 100.

[2] = test system: AMPKα; assay: AMPK-activating action in C2C12 muscle cells, AMPKα phosphorylation (Western blot); type: cell-based, murine; settings: for Phospho-AMPKα: 60 minutes, C2C12, relative value to control defined as 100
Description: (§1) A muscle cell line (C2C12) was used to evaluate the AMPK-activating action of nootkatone according to the procedures below with AMPKα and AMPKβ phosphorylation as indexes.
Cells of the murine muscle cell line (C2C12) were seeded onto a 25 cm^2 flask and cultured in DMEM (+10% FBS, +antimicrobial agent) at 37° C. for 1 to 2 days. When the cells became confluent, the culture solution was removed, and the cells were washed with PBS (−) and further cultured for 7 to 8 days in fresh DMEM (2% (V/V) horse serum), which was in turn replaced by a fresh culture solution every 2 to 3 days. The culture solution was then removed, and the cells were washed with PBS (−) and further cultured in fresh DMEM (−FBS) for 1 day. After the removal of the culture solution, the cells were cultured in DMEM (−FBS) containing a predetermined concentration of nootkatone (obtained from Wako Pure Chemical Industries, Ltd.) for 60 minutes. After the culture solution was subsequently removed and the cells were washed with PBS (−), 200 μL of cell lysis solution (10 mmol/L Tris (pH 7.4), 50 mmol/L sodium chloride, 30 mmol/L sodium pyrophosphate, 0.5% (V/V) Triton X-100, protease inhibitor cocktail (SIGMA P2714), phosphatase inhibitor cocktail-1 (SIGMA P2850), phosphatase inhibitor cocktail-2 (SIGMA P5726)) was added and the cell lysis solution was collected with a cell scraper. The collected cell lysis solution was well homogenized by passing it through a syringe with a 23G needle three times and then left on ice for 30 minutes. The homogenate was centrifuged at 15000 r/min at 4° C. for 15 minutes, and the resulting supernatant protein was used in the measurement below.
(§2) The concentration of the supernatant protein was measured, and the protein concentrations were then adjusted among samples to constant concentrations. […]
(§3) Predetermined amounts (approximately 20 to 40 μg) of the samples for electrophoresis were subjected to SDS-PAGE (12% gel) and transferred to a membrane. Then, phospho-AMPKα and phospho-AMPKβ were detected by using anti-phospho-AMPKα ([…]) antibodies (manufactured by Cell Signaling Technology, Inc.) or anti-phospho-AMPKβ (Ser108) antibodies (manufactured by Cell Signaling Technology, Inc.) as primary antibodies, anti-rabbit-HRP antibodies (manufactured by Amersham Biosciences) as secondary antibodies, and Phototope-HRP Western Detection System (manufactured by Cell Signaling Technology, Inc.) as a detection reagent. The degree of AMPK activation was indicated as a relative value to that of a control (sample-free group) defined as 100 by digitizing (pixelizing) detected band strength by image analysis (EDAS290 image analysis system; KODAK).

[3] = test system: AMPKβ; assay: AMPK-activating action in C2C12 muscle cells, AMPKβ phosphorylation (Western blot); type: cell-based, murine; settings: 60 minutes, relative value to control defined as 100
Description: as §1
Cells of the murine muscle cell line (C2C12) were seeded onto a 25 cm^2 flask and cultured in DMEM (+10% FBS, +antimicrobial agent) at 37° C. for 1 to 2 days. When the cells became confluent, the culture solution was removed, and the cells were washed with PBS (−) and further cultured for 7 to 8 days in fresh DMEM (2% (V/V) horse serum), which was in turn replaced by a fresh culture solution every 2 to 3 days. The culture solution was then removed, and the cells were washed with PBS (−) and further cultured in fresh DMEM (−FBS) for 1 day. After the removal of the culture solution, the cells were cultured in DMEM (−FBS) containing a predetermined concentration of nootkatone (obtained from Wako Pure Chemical Industries, Ltd.) for 60 minutes. […]
as §2, §3

[4] = Endurance-enhancing and antifatigue effects, maximum swimming time of mice in a current water pool; type: in vivo; settings: for Maximum swimming time: 7 L/min, Balb/c male mice
Description: The endurance-enhancing and antifatigue effects of nootkatone were evaluated as described below. Nootkatone used was a product of Avocado.
The endurance-enhancing and antifatigue effects were evaluated according to the measurement method of maximum swimming time of mice (Reference: Am J Physiol Regul Integr Comp Physiol, Vol. 288, R708-R715, 2005) in a current water pool. The experimental pool used was a clear acrylic pool (90 cm long×45 cm wide×45 cm deep) filled to a depth of 38 cm with water maintained at 34° C. with a heater. The current in the pool was generated with a pump (C-P60H, manufactured by Hitachi), and the current speed was adjusted by connecting Water flowmeter (Tofco) to the pump and opening and closing a valve. The current speed was measured with a digital current meter (SV-101-25S, Sankou Seimitsu Kogyo).
Experimental animals used were 5-week-old Balb/c male mice (Charles River Laboratories, Inc.). The mice were preliminarily raised for 1 week under a constant raising environment (23±2° C., light period: 7 a.m. to 7 p.m.) and acclimated. In subsequent 1-week training, the mice were accustomed to swimming exercise three times a week (subjected to swimming exercise for 30 minutes at a current speed of 5 L/min on the first day, and for 30 minutes at a current speed of 6 L/min on the third and fifth days). […] The mice were divided into 2 groups, a test diet group and a control diet group, each containing 8 mice, to prevent a difference in maximum swimming time between the groups. Diets prepared in the formulation composition shown in Table 8 were used to raise the mice for 10 weeks. During this period, the measurement of maximum swimming time (7 L/min) and training (6 L/min, 30 minutes) were performed once every week.

[5] = Antiobesity, antidiabetic and antilifestyle-related disease effects in C57BL/6 mice raised on high-fat diet; type: in vivo
Description: The antiobesity, antidiabetic, and antilifestyle-related disease effects of nootkatone were evaluated as described below.
Seven-week-old C57BL/6 male mice were divided into 3 groups each containing 10 mice and raised with each diet of the composition described in Table 2.
Twenty-two weeks later, their body weights were measured, while blood was collected from the mice under ether anesthesia and under non-fasting conditions to measure serum glucose, cholesterol, triglyceride, insulin, and leptin levels. The amount of visceral fat (epididymal fat, retroperitoneal fat, and perirenal fat) was also measured.

[6] = Group 3 (0.5% nootkatone), 22 weeks
[7] = Group 3: high-fat diet with 0.5% nootkatone, 22 weeks, C57BL/6 male mice
[8] = serum, non-fasting, Group 3: high-fat diet with 0.5% nootkatone, 22 weeks

In the case of `C=C(C)[C@@H]1CCC2=CC(=O)C[C@@H](C)[C@]2(C)C1` (stereo in doubt) [Nootkatone, 4,4a,5,6,7,8-hexahydro-6-isopropenyl-4,4a-dimethyl-2(3H)-naphthalenone], the “Lipid-degrading activity (β-oxidation activity), skeletal muscle” value ([1]; 200 mg/kg orally for 10 consecutive days, Balb/c male mice, gastrocnemius + soleus muscle, relative value to control defined as 100) is reported as 271, the “Lipid-degrading activity (β-oxidation activity), liver” value ([1]; 200 mg/kg orally for 10 consecutive days, Balb/c male mice, relative value to control defined as 100) is reported as 273 and the “Lipid-degrading activity (β-oxidation activity) of the liver and skeletal muscle” value ([1]; mice given nootkatone 200 mg/kg, 10 days, versus control) is reported as “remarkably increased”. For the same molecule, the “AMPK-activating action in the muscle cells” value ([2]; C2C12, summary of Table 1) was “strong AMPK-activating action”, the Phospho-AMPKα ([2]; nootkatone 50 μmol/L) was 402 and the Phospho-AMPKα ([2]; nootkatone 100 μmol/L) was 952. It also gave a Phospho-AMPKα ([2]; nootkatone 150 μmol/L) of 1077, a Phospho-AMPKβ ([3]; nootkatone 50 μmol/L) of 241 and a Phospho-AMPKβ ([3]; nootkatone 100 μmol/L) of 314. It also gave a Phospho-AMPKβ ([3]; nootkatone 150 μmol/L) of 358, a Maximum swimming time ([4]; after 10 week raising on test diet with 0.2% nootkatone) of 40.01 ± 3.17 min and a Maximum swimming time ([4]; before raising (baseline of test diet group)) of 27.31 ± 1.72 min. For the same molecule, the “Maximum swimming time after 10-week raising” value ([4]; test diet containing nootkatone as compared with the control diet group) was “significantly prolonged”, the “Increment of body weights and amount of visceral fat” value ([5]; Group 3 (0.5% nootkatone) as compared with Group 2) was “remarkably reduced” and the “Effect on rise in blood cholesterol level” value [5, 6] was “excellent inhibitory effect”. For the same molecule, the “Effect on rise in blood insulin level” value [5, 6] was “excellent inhibitory effect”, the “Effect on rise in blood leptin level” value [5, 6] was “excellent inhibitory effect” and the “Effect on rise in blood triglyceride level” value [5, 6] was “excellent inhibitory effect”. The “Effect on rise in blood-glucose level” value [5, 6] was “excellent inhibitory effect”, the Body weight [5, 7] was 30.4 g and the Epididymal fat [5, 7] was 0.47 g. For the same molecule, the Perirenal fat [5, 7] was 0.07 g, the Retroperitoneal fat [5, 7] was 0.15 g and the Glucose [5, 8] was 212.3 mg/dL. For the same molecule, the Insulin [5, 8] was 1.26 ng/mL, the Leptin [5, 8] was 6.2 ng/mL and the Total cholesterol [5, 8] was 131.3 mg/dL. The Triglyceride [5, 8] was 54.3 mg/dL.

From patent publication US20070054965A1, “AMPK activating agent” (Kao Corporation, priority 2005, published 2007)
